In patent US7176280B2, “Isolated polypeptides and compositions from the venom of P. transvaalicus and methods of use” (The Regents of the University of California, priority 2001, dated 2007):
Entries after “also recorded” stand apart in the source; their conditions may differ. No end group written: not given here.

Columns and labels:
[1] = cited from earlier work
[2] = test system: Male Swiss-Webster mice; assay: Mouse injection bioassay (intracerebroventricular; also subcutaneous, intraperitoneal); format: in vivo; conditions: for symptoms in injected mice (in words): intracerebroventricular injection, dose not given or as in the words; for symptoms in mice: 7–8 week old male Swiss-Webster mice; for Mouse (IC) high dose / Mouse (IC) low dose: preliminary biological activity
Description: (§1) Bioassays: Male Swiss-Webster mice were purchased from Charles River, Inc., and housed at the Animal Housing Facility, UC Davis. Blowfly (Sarcophaga spp.), crickets (Acheta domesticus) and Anole lizards (Anoles caroliensis) were purchased from Carolina Biologicals (Burlington, N.C.). Cotton bollworms (Heliothis virescens) were obtained from USDA/ARS (Stoneville, […].) and reared on artificial diet. Collected fractions were tested on mice by intracerebroventricular injections and by injecting last instar blowfly larvae. Third instar cotton bollworms and adult common house crickets were also used in screening for insecticidal components. Briefly, fractions were concentrated to dryness using a Heto Speed Vac (ATR, Inc. Emeryville, Calif.). Dried samples were resuspended in 10 μl 20 mM ammonium acetate buffer with 1 μg/μl BSA and incubated overnight at 4° C. to insure proper refolding before injection to the test animals. Mice were anesthetized using ethyl ether and intracerebroventricular injections of peptide solutions were executed immediately. […] All symptoms were observed and recorded up to 24 hours post injection. All experiments were carried out in accordance with the guidelines laid down by the National Institutes of Health in the USA regarding the care and use of experimental animals.
Next, the biological activities of Ikitoxin and Birtoxin were compared. Mouse biological activity was evaluated by intracerebroventricular injections of 7–8 week old male Swiss-Webster mice using […] purified toxin.
The biological activities of dortoxin, bestoxin, and ikitoxin were evaluated in blowfly larvae, tobacco budworm larvae, and mice. Blowfly larvae, tobacco budworm larvae were injected with 1 μL of fraction or toxin solution in water. The effects were observed and recorded up to 24 hrs post injection. The toxins to were also injected to mice (swiss-webster male 4–6 week old mice) through an intracerebroventricular route (brain). The mice were anesthetized using ethyl ether then injected with various doses of 5 μL of test solution. The effects were again observed and recorded up to 24 hrs post injection. […] The experiments were terminated after 48 hrs of observation. […] Bestoxin is only two amino acid different from its sister peptide dortoxin. The MALDI determined molecular masses for dortoxin (6643 Da) and bestoxin (6603 Da) also agree with the two amino acid difference of Lys20 in dortoxin to Glu20 in bestoxin and Glu45 in dortoxin to Ser45 in bestoxin.

[3] = test system: rat brain synaptosomes; format: binding; conditions: for EC50: read-out: EC50 (effective concentration)
[4] = test system: sodium channel binding site 3; assay: Ion channel binding properties of birtoxin
[5] = test system: Blowfly (Sarcophaga spp.) larvae; assay: Blowfly larvae injection bioassay; format: in vivo; conditions: for activity against blowfly (Sarcophaga) larvae (in words): injection into larvae
Description: Uctoxin HPLC Purification: Uctoxin was purified through three steps of RP-HPLC guided by insect and mouse bioassays. Initially the venom of P.transvaalicus was resuspended in solvent A (2% acetonitrile 98% water 0.1% TFA) and ran multiple times through a C4 magic bullet column hooked up to a Magic 2002 microbore HPLC System with a linear gradient of 2 to 65% solvent B (98% acetonitrile 2% water 0.1% TFA) in 15 minutes at a flow rate of 300 μL/min. as described above for ikitoxon. UV trace at 214 and 280 nm was monitored. Fraction P3 from the first column was collected, several runs were pooled and freeze dried. This fraction was run on a Michrom C18 microbore column on the same system with a linear gradient of 2 to 65% solvent B in 30 minutes at a flow rate of 50 μL/min. Peak 2 from the C18 column was further purified by running it through a microbore phenyl column on the same system with the same gradient conditions. Purity was confirmed using MALDI-TOF MS. Biological activity of peptide was monitored by intracerebroventricular injection of mice and also injections of blowfly and tobacco budworm larvae. For bioassays uctoxin was purified and resuspended in 20 mM ammonium acetate buffer with 1 ug/ul BSA. (The 50% effective doses (ED50) were determined according to Reed and Muench (Reed L. J., Muench, S. 1938 Am.J.Hyg 27, 493–497.))
as §1
The biological activities of dortoxin, bestoxin, and ikitoxin were evaluated in blowfly larvae, tobacco budworm larvae, and mice. Blowfly larvae, tobacco budworm larvae were injected with 1 μL of fraction or toxin solution in water. The effects were observed and recorded up to 24 hrs post injection. The toxins to were also injected to mice (swiss-webster male 4–6 week old mice) through an intracerebroventricular route (brain). The mice were anesthetized using ethyl ether then injected with various doses of 5 μL of test solution. The effects were again observed and recorded up to 24 hrs post injection. […] The MALDI determined molecular masses for dortoxin (6643 Da) and bestoxin (6603 Da) also agree with the two amino acid difference of Lys20 in dortoxin to Glu20 in bestoxin and Glu45 in dortoxin to Ser45 in bestoxin.

[6] = test system: Insect Lepidoptera; assay: Parakinin in vivo assay on Lepidoptera; conditions: preliminary biological activity
Description: The preliminary biological activity of parakinins I investigated by in vivo assays conducted on insects and mice. Parakinins are active and potent against both invertebrates and vertebrates. These in vivo effects implicate potential pharmaceutical use and development. Due to the small nature of parakinins analogs of these peptides can be synthesized and tested very rapidly.

[7] = test system: Male Swiss-Webster mice; assay: Mouse injection bioassay (intracerebroventricular; also subcutaneous, intraperitoneal); format: in vivo; conditions: preliminary biological activity
[8] = intracerebroventricular, 0.2–1 mg purified toxin

RPPGFSPFR [bradykinin]
destroyed on a single passage through the pulmonary circulation ([1]; anesthetized rat): 98%–99% | half life in the systemic circulation ([1]; rat, in vivo): less than 30 seconds

birtoxin (ADVPGNYPLDKDGNTYKCFLLGGNEECLNVCKLHGVQYGYCYASKCWCEYLEDDKDVS; not fully specified; ends and bridges not checked)
effect of injection in mice ([2]; 1 μg of pure birtoxin): induced severe neurotoxic symptoms in mice up to 24 hours but was not lethal | effect of injection in mice ([2]; 2 μg of pure peptide): lethal | symptoms in injected mice (in words) [2]: induced serious symptoms, including tremors, which lasted up to 24 hours post injection at submicrogram amounts | symptoms in mice [2, 8]: convulsions, tremors, increased heart rate and finally death | lethality to mice (summary statement) ([2]; mouse, in vivo): lethal to mice at low microgram quantities | enhancement of the binding of [3H] BTX [3]: about 4.32 fold | EC50 [3]: ~5 nM | sodium channel binding site and mode of action [4]: binds to sodium channel binding site 3 and blocks the sodium channel by prolonging the inactivation

ikitoxin (ADVPGNYPLDKDGNTYKCFLLGENEECLNVCKLHGVQYGYCYASKCWCEYLEDDKDVS; listed as Parabuthus transvaalicus)
symptoms in injected mice (in words) [2]: induced periodic unprovoked jumps in injected mice | time course of the symptom [2, 8]: Within three hours of injection the symptom gradually faded | initial frequency of unprovoked jumps ([2]; intracerebroventricular, 0.2–1 mg purified toxin, for 20 minutes): about 3 jumps per minute | symptoms in mice [2, 8]: periodic unprovoked jumps | lethality during the observation period ([2]; intracerebroventricular, range of injected doses 0.2–1 mg): did not show lethality | activity against blowfly (Sarcophaga) larvae (in words) [5]: not active against Sarcophaga

parakinin-1 (PFIVPPFR; listed as Parabuthus transvaalicus)
Mouse (IC) high dose [2]: Paralysis | Mouse (IC) low dose [2]: Hyperventilation,; also recorded: Hyperactivity | Insect blowfly ([5]; preliminary biological activity): Contractive paralysis | Insect Lepidoptera [6]: Contractive paralysis | Mouse (SC) [7]: Hyperventilation,; also recorded: Hyperactivity

uctoxin
symptoms in injected mice (in words) [2]: consistent contraction and tremors | time to lethality ([2]; intracerebroventricular, 0.5 μg of uctoxin): ≤ 30 min | activity against blowfly (Sarcophaga) larvae (in words) [5]: bioactivity only in the case of the first major peak | activity against blowfly (Sarcophaga) larvae (in words) ([5]; listed as Uctoxin): immediate flaccid paralysis | ED50 ([5]; last instar Sarcophaga larvae, flaccid paralysis): about 70 ng/100 mg larvae | enhancement of the binding of [3H] BTX [3]: 2 fold | EC50 [3]: ~60 nM

bestoxin (ADVPGNYPLDKDGNTYTCLELGENKDCQKVCKLHGVQYGYCYAFSCWCKEYLDDKDSV; listed as Parabuthus transvaalicus)
sensitivity to stimuli of injected mice ([2]; intracerebroventricular): hypersensitive to stimuli | state of the mice at the end of 48 hrs ([2]; intracerebroventricular): still live, dessicated, and exhausted but still continued to roll | symptoms in injected mice (in words) [2]: contract, twist and roll around itself indefinitely

dortoxin (ADVPGNYPLDKDGNTYTCLKLGENKDCQKVCKLHGVQYGYCYAFECWCKEYLDDKDSV; listed as Parabuthus transvaalicus)
symptoms in injected mice (in words) [2]: convulsions, tremors and death | LD99 ([2]; intracerebroventricular, Swiss-Webster male 4–6 week old mice): < 0.5 μg/20 gr of mouse

parakinin-2 (PFVVPPFR; listed as Parabuthus transvaalicus)
Mouse (IC) high dose [2]: Paralysis | Mouse (IC) low dose [2]: Hyperventilation,; also recorded: Hyperactivity | Mouse (SC) [7]: Hyperactivity
